We go through 27 compounds from US10676471B2, “Cycloalkyl-linked diheterocycle derivatives” (Pfizer Inc., priority 2014, dated 2020).

Structures are written as SMILES.

The experiment has as its system BT20 Cell. Briefly: Cancer Cell Lysate Total L-Glutamate Assay. In kind it is cell-based. The conditions noted are these: total L-glutamate in cell lysate, BT20 cells, 2 hour incubation with test compound. The gist of the method:
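BT20 and other cancer lines at ~80% confluence were given fresh L-glutamine-containing medium, then treated with serially diluted compound (0.5% DMSO) for 2 hours at 37° C. Washed cells were lysed by freeze-thaw and sonication. Lysate glutamate was measured via glutamate oxidase/HRP/50 μM Amplex Red fluorescence (ex 530-560, em 585 nm); IC50 by four-parameter logistic fit.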

In general, IC50 refers to the concentration at which inhibition is half-maximal. Turning to `Cn1ccc(Nc2nnc([C@H]3CC[C@@H](Cc4nnc(NC(=O)Cc5ccccn5)s4)C3)s2)n1` (single isomer, unassigned) [Example 89, N-(5-{[(cis)-3-{5-[(1-methyl-1H-pyrazol-3-yl)amino]-1,3,4-thiadiazol-2-yl}cyclopentyl]methyl}-1,3,4-thiadiazol-2-yl)-2-(pyridin-2-yl)acetamide], for the setting “Homo sapiens, BT-20, 2 h”, the midpoint of inhibition, the IC50, lay at 3.9 nM.

In turn, `O=C(Cc1ccccc1)Nc1nnc(CC2CCC(c3nnc(NC(=O)Cc4ccccc4)s3)C2)s1` (racemic) [Example 9, (rac)-2-phenyl-N-(5-{[(cis)-3-{5-[(phenylacetyl)amino]-1,3,4-thiadiazol-2-yl}cyclopentyl]methyl}-1,3,4-thiadiazol-2-yl)acetamide] showed an IC50 (Homo sapiens, BT-20, 2 h) of 17 nM.

Compound `O=C(Cn1cccn1)Nc1nnc(C[C@H]2CC[C@@H](c3nnc(NC(=O)Cc4ccccn4)s3)C2)s1` (racemic) [Example 142, (rac)-2-(1H-pyrazol-1-yl)-N-(5-{[(cis)-3-{5-[(pyridin-2-ylacetyl)amino]-1,3,4-thiadiazol-2-yl}cyclopentyl]methyl}-1,3,4-thiadiazol-2-yl)acetamide] came in with an IC50 (Homo sapiens, BT-20, 2 h) of 13.2 nM.

Consider `O=C(Cc1ccccn1)Nc1ccc([C@H]2C[C@H](Cc3nnc(NC(=O)Cc4ccccn4)s3)C2)nn1` (single isomer, unassigned) [Example 123, 2-(pyridin-2-yl)-N-{5-[(trans-3-{6-[(pyridin-2-ylacetyl)amino]pyridazin-3-yl}cyclobutyl)methyl]-1,3,4-thiadiazol-2-yl}acetamide], for which, under “Homo sapiens, BT-20, 2 h”, half-maximal inhibition (IC50) required 1.8 nM.

`O=C(Cc1ccccn1)Nc1nnc([C@H]2CC3(C[C@H](c4nnc(NC(=O)Cc5ccccn5)s4)C3)C2)s1` (single isomer, unassigned) [Example 99, N,N′-(spiro[3.3]heptane-2,6-diyldi-1,3,4-thiadiazole-5,2-diyl)bis[2-(pyridin-2-yl)acetamide]] gave an IC50 (Homo sapiens, BT-20, 2 h) of 0.3 nM.

Take `CC(=O)Nc1nnc([C@H]2C[C@H](Cc3ccc(NC(=O)Cc4ccccn4)nn3)C2)s1` (single isomer, unassigned) [Example 115, N-[6-({trans-3-[5-(acetylamino)-1,3,4-thiadiazol-2-yl]cyclobutyl}methyl)pyridazin-3-yl]-2-(pyridin-2-yl)acetamide]: it took 2 nM to reach half-maximal inhibition (Homo sapiens, BT-20, 2 h) (IC50).

For the setting “Homo sapiens, BT-20, 2 h”, `CC(=O)Nc1nnc(C2CCC(Cc3nnc(NC(=O)Cc4ccc(C)nc4)s3)C2)s1` (racemic) [Example 52, (rac)-N-[5-({(cis)-3-[5-(acetylamino)-1,3,4-thiadiazol-2-yl]cyclopentyl}methyl)-1,3,4-thiadiazol-2-yl]-2-(6-methylpyridin-3-yl)acetamide] showed a 50% inhibitory concentration (IC50) of 29.8 nM.

Regarding `O=C(Cc1ccccn1)Nc1nnc(C[C@H]2CC[C@@H](c3nnc(Nc4ccccn4)s3)C2)s1` (single isomer, unassigned) [Example 86, 2-(pyridin-2-yl)-N-[5-({(cis)-3-[5-(pyridin-2-ylamino)-1,3,4-thiadiazol-2-yl]cyclopentyl}methyl)-1,3,4-thiadiazol-2-yl]acetamide], the IC50 (Homo sapiens, BT-20, 2 h) was found to be 4.8 nM.

The compound `Cn1ccc(CC(=O)Nc2nnc(C3CC4(C3)CC(c3nnc(NC(=O)Cc5ccn(C)n5)s3)C4)s2)n1` (racemic) [Example 96, (rac)-N,N-(spiro[3.3]heptane-2,6-diyldi-1,3,4-thiadiazole-5,2-diyl)bis[2-(1-methyl-1H-pyrazol-3-yl)acetamide]] gave an IC50 (Homo sapiens, BT-20, 2 h) of 0.3 nM.

In the case of `CC(C)(C)C(=O)Nc1nnc(C[C@@H]2CC[C@H](c3nnc(NC(=O)C(C)(C)C)s3)C2)s1` (single isomer, unassigned) [Example 29, N-(5-{[(cis)-3-{5-[(2,2-dimethylpropanoyl)amino]-1,3,4-thiadiazol-2-yl}cyclopentyl]methyl}-1,3,4-thiadiazol-2-yl)-2,2-dimethylpropanamide], for the setting “Homo sapiens, BT-20, 2 h”, the midpoint of inhibition, the IC50, lay at 167 nM.

In turn, `CC(=O)Nc1nnc(C[C@@H]2CC[C@H](c3nnc(NC(=O)Cc4ccncn4)s3)C2)s1` (single isomer, unassigned) [Example 20] registered an IC50 (Homo sapiens, BT-20, 2 h) of 137 nM.

Turning to `C[C@H](C(=O)Nc1nnc(C[C@@H]2CC[C@H](c3nnc(NC(=O)[C@@H](C)c4cccnc4)s3)C2)s1)c1cccnc1` (single isomer, unassigned) [Example 33, 2-(pyridin-3-yl)-N-(5-{[(cis)-3-(5-{[2-(pyridin-3-yl)propanoyl]amino}-1,3,4-thiadiazol-2-yl)cyclopentyl]methyl}-1,3,4-thiadiazol-2-yl)propanamide], inhibition (Homo sapiens, BT-20, 2 h) was half-maximal at 7 nM (IC50).

Compound `CC(C)C(=O)Nc1nnc(C2CC3(CC(c4nnc(NC(=O)Cc5ccccn5)s4)C3)C2)s1` (racemic) [Example 135, 2-methyl-N-[5-(6-{5-[(pyridin-2-ylacetyl)amino]-1,3,4-thiadiazol-2-yl}spiro[3.3]hept-2-yl)-1,3,4-thiadiazol-2-yl]propanamide] gave an IC50 (Homo sapiens, BT-20, 2 h) of 2.1 nM.

As to `CC(=O)Nc1nnc(C[C@H]2C[C@@H](c3nnc(NC(C)=O)s3)C2)s1` (single isomer, unassigned) [Example 62, N-[5-({cis-3-[5-(acetylamino)-1,3,4-thiadiazol-2-yl]cyclobutyl}methyl)-1,3,4-thiadiazol-2-yl]acetamide], inhibition (Homo sapiens, BT-20, 2 h) was half-maximal at 38.5 nM (IC50).

On to `CCNc1nnc([C@@H]2CC[C@H](Cc3ccc(NC(=O)Cc4ccccn4)nn3)C2)s1` (single isomer, unassigned) [Example 101, N-[6-({(cis)-3-[5-(ethylamino)-1,3,4-thiadiazol-2-yl]cyclopentyl}methyl)pyridazin-3-yl]-2-(pyridin-2-yl)acetamide], for which, under “Homo sapiens, BT-20, 2 h”, the IC50 was 339 nM.

In turn, `Cn1ccc(CC(=O)Nc2nnc([C@H]3CC4(C[C@H](c5nnc(NC(=O)Cc6ccn(C)n6)s5)C4)C3)s2)n1` (stereo partly drawn) [Example 98, N,N′-(spiro[3.3]heptane-2,6-diyldi-1,3,4-thiadiazole-5,2-diyl)bis[2-(1-methyl-1H-pyrazol-3-yl)acetamide]] registered an IC50 of 0.5 nM.

Compound `O=C(Cc1ccccc1)Nc1ccc(C[C@H]2CC[C@@H](c3nnc(NC(=O)Cc4ccccn4)s3)C2)nn1` (single isomer, unassigned) [Example 81, 2-phenyl-N-(6-{[(cis)-3-{5-[(pyridin-2-ylacetyl)amino]-1,3,4-thiadiazol-2-yl}cyclopentyl]methyl}pyridazin-3-yl)acetamide] registered a half-maximal inhibitory concentration (IC50) (Homo sapiens, BT-20, 2 h) of 4.5 nM.

`Nc1nnc(C[C@@H]2CC[C@H](c3nnc(N)s3)C2)s1` (single isomer, unassigned) [Example 40] returned an IC50 (Homo sapiens, BT-20, 2 h) of 4580 nM.

In turn, `Cc1ccc(CC(=O)Nc2nnc(C[C@H]3C[C@H](c4nnc(NC(=O)Cc5ccc(C)cn5)s4)C3)s2)nc1` (single isomer, unassigned) [Example 109, 2-(5-methylpyridin-2-yl)-N-(5-{[trans-3-(5-{[(5-methylpyridin-2-yl)acetyl]amino}-1,3,4-thiadiazol-2-yl)cyclobutyl]methyl}-1,3,4-thiadiazol-2-yl)acetamide] showed an IC50 (Homo sapiens, BT-20, 2 h) of 1.3 nM.

Regarding `CC(=O)Nc1nnc([C@@H]2CC[C@H](Cc3nnc(NC(=O)Cc4ccccn4)s3)C2)s1` (racemic) [Example 151, (rac)-N-[5-({(cis)-3-[5-(acetylamino)-1,3,4-thiadiazol-2-yl]cyclopentyl}methyl)-1,3,4-thiadiazol-2-yl]-2-(pyridin-2-yl)acetamide], inhibition (Homo sapiens, BT-20, 2 h) was half-maximal at 4.6 nM (IC50).

Take `CCNc1nnc(C2CCC(Cc3nnc(NC(=O)Cc4ccccn4)s3)C2)s1` (racemic) [Example 24, (rac)-N-[5-({(cis)-3-[5-(ethylamino)-1,3,4-thiadiazol-2-yl]cyclopentyl}methyl)-1,3,4-thiadiazol-2-yl]-2-(pyridin-2-yl)acetamide]: for the setting “Homo sapiens, BT-20, 2 h”, the IC50 was determined as 78.9 nM.

For the compound `C[C@H](C(=O)Nc1nnc([C@H]2CC[C@@H](Cc3nnc(NC(=O)[C@H](C)c4cccnc4)s3)C2)s1)c1cccnc1` (single isomer, unassigned) [Example 35, 2-(pyridin-3-yl)-N-(5-{[(cis)-3-(5-{[2-(pyridin-3-yl)propanoyl]amino}-1,3,4-thiadiazol-2-yl)cyclopentyl]methyl}-1,3,4-thiadiazol-2-yl)propanamide], for the setting “Homo sapiens, BT-20, 2 h”, the IC50 stood at 50.7 nM.

As to `O=C(Cc1ccccn1)Nc1ccc(C[C@H]2CC[C@@H](c3nnc(NC(=O)c4ccccn4)s3)C2)nn1` (single isomer, unassigned) [Example 116, N-{5-[(cis)-3-({6-[(pyridin-2-ylacetyl)amino]pyridazin-3-yl}methyl)cyclopentyl]-1,3,4-thiadiazol-2-yl}pyridine-2-carboxamide], the IC50 (Homo sapiens, BT-20, 2 h) came to 5.9 nM.

Turning to `CC(=O)Nc1nnc([C@H]2CC[C@@H](Cc3nnc(NC(=O)Cc4ccccn4)s3)C2)s1` (single isomer, unassigned) [Example 17, N-[5-({(cis)-3-[5-(acetylamino)-1,3,4-thiadiazol-2-yl]cyclopentyl}methyl)-1,3,4-thiadiazol-2-yl]-2-(pyridin-2-yl)acetamide], the midpoint of inhibition (Homo sapiens, BT-20, 2 h), the IC50, lay at 12.2 nM.

In turn, `Cc1ccc(CC(=O)Nc2nnc([C@H]3C[C@@H](Cc4nnc(NC(=O)Cc5ccccn5)s4)C3)s2)nc1` (single isomer, unassigned) [Example 112, 2-(5-methylpyridin-2-yl)-N-{5-[cis-3-({5-[(pyridin-2-ylacetyl)amino]-1,3,4-thiadiazol-2-yl}methyl)cyclobutyl]-1,3,4-thiadiazol-2-yl}acetamide] came in with an IC50 (Homo sapiens, BT-20, 2 h) of 0.2 nM.

`CC(=O)Nc1nnc(C2CCC(Cc3nnc(NC(=O)c4ccccc4)s3)C2)s1` (racemic) [Example 11, N-[5-({(cis)-3-[5-(acetylamino)-1,3,4-thiadiazol-2-yl]cyclopentyl}methyl)-1,3,4-thiadiazol-2-yl]benzamide] displayed an IC50 (Homo sapiens, BT-20, 2 h) of 47.9 nM.

For the compound `CC(C)C(=O)Nc1nnc(C2CC3(CC(c4nnc(NC(=O)Cc5ccn(C)n5)s4)C3)C2)s1` (racemic) [Example 136, 2-methyl-N-{5-[6-(5-{[(1-methyl-1H-pyrazol-3-yl)acetyl]amino}-1,3,4-thiadiazol-2-yl)spiro[3.3]hept-2-yl]-1,3,4-thiadiazol-2-yl}propanamide], the IC50 (Homo sapiens, BT-20, 2 h) turned out to be 1.9 nM.
